Data: US12240854B2, “TRAF 6 inhibitors” (Helmholtz Zentrum München - Deutsches Forschungszentrum für …, priority 2018, dated 2025)
“Also recorded” adds a separate entry of the source.

How the values were obtained:
[1] = target: T1, RNF4 (Homo sapiens, UniProt P78317); assay: In vitro ubiquitination assay, RNF4 ubiquitin ligase kit; type: biochemical
T1 construct: purchased Boston Biochem
Method: (§1) For analysis of cIAP1, MDM2, TRIM63, RNF4, ITCH and E6AP mediated poly-ubiquitination, the respective ubiquitin ligase kit from Boston Biochem (K-102, K-260, K-200B, K-220, K-240 and K-270) was used. Here, reaction buffer, E1, E2 and E3 enzyme (and p53 substrate in case of MDM2) were mixed and pre-incubated with compound or DMSO for 5 minutes at room temperature before adding Mg^2+-ATP and mono-ubiquitin for reaction start. Ubiquitination was visualized by Western Blot analyses.

[2] = system: IMQ-induced psoriasis in Balb/C mice; assay: Imiquimod (IMQ)-induced psoriasis mouse model; type: in vivo
Method: To evaluate the anti-inflammatory activity of the compound C25-140 (compound 3), an Imiquimod (IMQ)-induced psoriasis mouse model was conducted by Washington Biotechnology, Inc. (Baltimore, USA). Per group, 8 male Balb/C mice were shaved in the back (1.5 cm×2 cm) and IMQ and C25-140 were applied topically to the shaved back and the right ear daily for 6 days. Thereby, C25-140 was dissolved in acetone and applied at a total dosage of 500 μg per day (2×250 μg). Mice were monitored and daily scores (erythema, scaling and thickness of back skin) were independently collected on a scale from 0 to 4: 0=none; 1=slight; 2=moderate; 3=marked and 4=very marked. Ear thickness was measured by electronic calipers as an indicator of edema. IL-17 cytokine secretion of the right ear tissue was measured by ELISA.

[3] = target: T2, MDM2 (Homo sapiens, UniProt Q00987); assay: In vitro ubiquitination assay, MDM2 ubiquitin ligase kit (p53 substrate); type: biochemical; conditions: K48 chain formation
T2 construct: purchased Boston Biochem
Method: as §1

[4] = Pharmacokinetic studies (IV, PO, IP); type: in vivo
Method: (§2) All ADME (plasma stability, plasma protein binding, microsomal stability, Log D, Caco-2 assay, CYP450 inhibition and hERG predictor assay) as well as pharmacokinetic studies (Tmax, Cmax, AUC0-240min, Mean Residence Time, Elimination half life, Elimination rate constant, Volume of Distribution and Clearance) of C25-140 (compound 3) were conducted by Bienta Enamine Biology Services of Bienta/Enamine Ltd.
The inventors also tested the pharmacokinetics (PK) of C25-140 after intravenous (IV), peroral (PO) and intraperitoneal (IP) injection of each 10 mg/kg compound. All the analyzed data are summarized in FIG. 9B and the concentration/time-course graph for IP administration is shown in FIG. 9C.

[5] = system: BJAB (GCB DLBCL); assay: Cell viability in DLBCL, BJAB; type: cell-based; conditions: 30 μM, 9 days
Method: To determine the effects of C25-140 on MYD88-dependent ABC-DLBCL, we chose the HBL1 (ABC-DLBCL-MYD88 L265P), U2932 (ABC DLBCL-MYD88 wt) and BJAB (GCB DLBCL) cell lines. 1×10^6 cells of each cell line was seeded in 5 ml and treated with 30 μM compound C25-140 (compound 3) or DMSO. The entire experiment was carried out for 9 days. Every day 500 μl were taken and viable cell number was acquired using the ViCEII cell counter (Beckmann Coulter). At days 4 and 8 of the experiment the volume was again adjusted to 5 ml and samples were supplemented with 30 μM compound C25-140 or DMSO. This process was necessary to ensure linear proliferation of DMSO treated cells. All curves of C25-140 treated samples were referred to the corresponding DMSO treated controls.

[6] = system: CYP450; assay: ADME: CYP450 inhibition; type: in vitro ADME
Method: as §2

[7] = system: IL-2 and TNFα secretion of Jurkat T-cells; assay: ELISA cytokine secretion, Jurkat T-cells; type: cell-based, human
Method: (§3) For measurement of cytokine secretion, 2×10^5 Jurkat T-cells or primary CD4^+ T-cells or human PBMCs per sample were seeded, treated with compound for 6 hours and stimulated as indicated. 20 hours after stimulation, supernatants were harvested and analyzed with the IL-2, IL-1β and TNFα Ready-Set-Go! ELISA (2nd Generation) kits provided by Affymatrix eBioscience.

[8] = system: osteosarcoma cell line U2OS; assay: Cell growth of the osteosarcoma cell line U2OS with or without irradiation; type: cell-based
Method: For analysis of the cell growth of the osteosarcoma cell line U2OS, 5×10^3 cells were seeded in 96 well plates. 18 hours later, cells were treated with C25-140 (compound 3) or DMSO for 6 hours. Using a ^137caesium source (HWM-D2000), selected samples were irradiated with a dose of either 2 Gy or 4 Gy. Cell growth was measured every 24 hours for a period of 7 days by counting Hoechst33342 positive cells in an Operetta High-Content Imaging System (PerkinElmer) and the Harmony/Columbus analysis software (PerkinElmer).

[9] = target: T3, Interaction of Ubc13 with Uev1a (Homo sapiens, UniProt P61088+Q13404); assay: Ubc13-Uev1a interaction (FIG. 2E); type: binding
T3 construct: GST (N); His; made in house

[10] = system: primary human peripheral blood mononuclear cells (PBMCs); assay: Human PBMC cytokine secretion (ELISA); type: cell-based
Method: as §3
For isolation of peripheral blood mononuclear cells (PBMCs) from 50 mL human blood of three different donors, blood was mixed with 800 units of Heparin (Sigma-Aldrich) and centrifuged at 300×g for 10 minutes without brake. After removal of the plasma fraction, buffy coat was diluted in 2 volumes PBS and added on top of 15 ml Lymphoprep (STEMCELL technologies). After centrifugation at 160×g for 20 minutes at room temperature without brake, platelets were removed and the cell suspension was centrifuged again at 350×g for 20 minutes without brake. Mononuclear cells from the intermediate layer were transferred to a new falcon and washed 3 times in PBS supplemented with 0.1% BSA and 2 mM EDTA. In the end, cells were resuspended in RPMI medium containing 10% FCS, 1% Penicillin/Streptomycin and 50 μM β-mercaptoethanol. Per sample, 2×10^5 cells were seeded and treated with compound for 6 hours. The cells were stimulated with either 1 μg/ml Lipopolysaccharide (LPS) or CD3/CD28 (1 μg hCD3 (IgG2A), 4 μg hCD28 (IgG1), […] and […]) or 20 ng/IL-1β. Supernatants for analysis of cytokine secretion were harvested 20 hours after stimulation.

[11] = topical, 2x250 μg per day, 6 days
[12] = topical, 2x250 μg per day, 6 days, listed as 25-140

T1 sequence (P78317 whole entry): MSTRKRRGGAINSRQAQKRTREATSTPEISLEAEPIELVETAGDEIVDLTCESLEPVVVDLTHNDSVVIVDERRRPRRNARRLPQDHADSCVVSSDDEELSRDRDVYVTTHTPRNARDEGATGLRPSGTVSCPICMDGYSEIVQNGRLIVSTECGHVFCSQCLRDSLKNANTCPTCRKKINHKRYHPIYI
T3 sequence (P61088 with tags, fused parts or gaps): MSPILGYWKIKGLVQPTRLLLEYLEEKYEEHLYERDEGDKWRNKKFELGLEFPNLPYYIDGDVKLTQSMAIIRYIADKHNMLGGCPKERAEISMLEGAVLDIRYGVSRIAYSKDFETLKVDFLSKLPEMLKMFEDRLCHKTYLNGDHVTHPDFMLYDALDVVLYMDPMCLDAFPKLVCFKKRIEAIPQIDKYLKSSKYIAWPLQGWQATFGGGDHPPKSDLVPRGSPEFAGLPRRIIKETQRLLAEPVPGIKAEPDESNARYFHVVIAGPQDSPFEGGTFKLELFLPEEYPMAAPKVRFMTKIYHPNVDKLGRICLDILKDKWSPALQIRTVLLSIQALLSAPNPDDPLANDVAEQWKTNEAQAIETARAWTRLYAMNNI
T3 sequence (Q13404 with tags, fused parts or gaps isoform Q13404-7): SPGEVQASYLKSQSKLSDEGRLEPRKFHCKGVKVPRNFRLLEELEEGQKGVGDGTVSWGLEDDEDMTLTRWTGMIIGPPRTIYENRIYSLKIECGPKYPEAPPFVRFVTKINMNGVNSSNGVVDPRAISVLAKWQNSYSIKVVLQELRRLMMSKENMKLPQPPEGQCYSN
T2 sequence (Q00987 whole entry): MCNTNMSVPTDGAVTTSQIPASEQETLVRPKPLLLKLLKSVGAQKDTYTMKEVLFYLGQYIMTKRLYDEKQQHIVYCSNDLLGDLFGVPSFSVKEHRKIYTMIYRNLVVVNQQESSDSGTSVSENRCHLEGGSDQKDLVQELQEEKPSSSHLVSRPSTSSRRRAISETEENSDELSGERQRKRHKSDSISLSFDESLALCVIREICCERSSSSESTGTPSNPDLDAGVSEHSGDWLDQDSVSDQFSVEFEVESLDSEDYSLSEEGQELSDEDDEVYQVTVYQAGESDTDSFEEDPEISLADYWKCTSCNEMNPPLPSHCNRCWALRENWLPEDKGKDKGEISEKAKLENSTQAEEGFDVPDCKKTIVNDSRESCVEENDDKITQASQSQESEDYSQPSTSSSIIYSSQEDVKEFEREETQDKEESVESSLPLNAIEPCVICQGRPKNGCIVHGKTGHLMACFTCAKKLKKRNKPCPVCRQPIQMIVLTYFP

## Cc1nn(-c2ccc3nnc(C)n3n2)c(C)c1CCC(=O)N1CCC(Cc2ccccc2)CC1 [Example C25-140, 1-(4-Benzylpiperidin-1-yl)-3-(3,5-dimethyl-1-(3-methyl-[1,2,4]-triazolo-[4,3-b]-pyridazin-6-yl)-1H-pyrazol-4-yl)-propan-1-one]
[1]
  RNF4 auto-ubiquitination: not influenced; also recorded: not affected
[2]; IMQ-induced psoriasis
  psoriasis symptoms / disease outcome (in words): ameliorates disease outcomes; also recorded: ameliorates symptoms
[2]; day 6, ELISA
  IL-17 cytokine in right ear tissue: significantly reduced; also recorded: decreased
[2]; [11]
  cumulative score: reduces
  ear thickness: significantly reduced
  erythema score of the back: improvement of the disease symptoms
  scaling score: improvement of the disease symptoms
  thickness score of the back: significantly reduce
[2]; [12]
  cumulative score: significantly reduce
  ear thickness: improvement of the disease symptoms
[3]
  p53 ubiquitination by MDM2: not influenced; also recorded: not affected
[4]; 10 mg/kg IV, PO, IP
  adverse effects on animals during the PK studies: no obvious adverse effects
[4]; IV, PO, IP
  in vivo half life (in words): moderate in vivo half life
  initial distribution phase (in words): rapid initial distribution phase
[4]; in vivo
  bioavailability (in words): good bioavailability
[5]
  viability of GCB DLBCL: did not show any difference in viability; also recorded: not affected
[6]
  CYP450 inhibition: some inhibitory potential on selected CYPs
[7]
  cytokine secretion of IL-2 and TNFα: reduced; also recorded: dose-dependently decreased
[8]; 30 μM compound + 2Gy irradiation
  osteosarcoma cell growth: synergistic effects; also recorded: boosted the effect to the region of 4Gy irradiation; also recorded: decreases cell growth to the same extent as the higher dose of irradiation (4Gy)
[8]; compound alone at 30 μM
  osteosarcoma cell growth: reducing proliferation of U2OS cells to the same degree as 2Gy irradiation; also recorded: same inhibitory impact; also recorded: reduced
[9]
  interaction of Ubc13 with Uev1a: did not affect binding; also recorded: not affected
[10]; CD3/CD28 stimulation
  secretion of IL-2 and TNFα: decreased levels of IL-2 and TNFα secretion
[10]; IL-1β stimulation
  secretion of IL-6 and TNFα: reduced secretion; also recorded: attenuated
[10]; LPS stimulation
  secretion of IL-1β and TNFα: reduced secretion; also recorded: reduced levels of IL-1β and TNFα cytokines
